Experimental data from patent US20080305092A1, “Methods of treating autoimmune disease via CTLA-4IG” (THE REGENTS OF THE UNIVERSITY OF MICHIGAN, priority 1993, published 2008).

Assays:
CD28^+ T cells [1] = test: T cell proliferation (3H-thymidine) in the presence of cyclosporine or dexamethasone; type: cell-based, human
Protocol: T cells, enriched by nylon wool filtration as described by Julius, et al., Euro. […] The above combinations also included […] titrations (from 25 ng/ml to 1.6 μg/ml) of cyclosporine (CSP) (Sandoz, Hanover, N.J.) dissolved in ethanol-Tween 80 as described by Wiesinger, et al., Immunobiol., 156:454-463 (1979).
^3H-thymidine incorporation was measured on day 3 of culture and the results representative of eight independent experiments are depicted in FIG. 3. […] Table 6 below illustrates the effects of cyclosporine on CD3-induced proliferation of CD28^+ T cells cultured at approximately 5×10^4 cells/well in flat-bottomed 96-well microtiter plates (CoStar, Cambridge, Mass.) under the following conditions: immobilized Mab G19-4; or immobilized mAb G19-4 and mAb 9.30 100 ng/ml; or immobilized mAb G19-4 and PMA 1 ng/ml; or Mab 9.3 100 ng/ml and PMA 1 ng/ml. Cyclosporine was prepared as above and included in the cultures at 0, 0.2, 0.4, 0.8, 1.2 μg/ml.
^3H-thymidine incorporation was determined on day 3 of culture as above. […] CD28^+ T cells cultured in the absence of cyclosporine were given cyclosporine diluent. ^3H-thymidine incorporation of cells cultured in medium, or PMA, or monoclonal antibody 9.3 only were less than 150 cpm.

CD28^+ T cells [2] = test: Lymphokine secretion (IL-2, TNF-α/LT, IFN-γ, GM-CSF) by stimulated CD28+ T cells, with or without cyclosporine; type: cell-based, human; settings: supernatant at 24 h; CSP 0.6 μg/ml where in label
[3] = system: CD28-stimulated IL-2 production of T cells; test: CD28-stimulated IL-2 production with or without herbimycin A, bioassay; settings: for IL-2: cells cultured in the single agent only, 24 h
Protocol: Cells. The CD28^+ subset of T cells was isolated from peripheral blood T lymphocytes by negative selection using immunoabsorption with goat anti-mouse Ig-coated magnetic particles as previously described in June, C. […] In some instances, T cells or Jurkat cells were cultured in complete media, or in complete media with 5 ng/ml PMA (Sigma Chemical Co., St. Louis, Mo.) or OKT3 beads (±5 beads/cell) before experiments.
To address the potential role of tyrosine kinases in CD28-triggered signaling, the effect of herbimycin A, an inhibitor of the src family protein tyrosine kinases (see Uehara, Y. et al., Biochem. Biophys. Res. Commun., 163:803 (1989)), on the CD28-triggered enhancement of IL-2 production was investigated. T cells were cultured overnight in the absence (depicted as open bars in FIG. 15) or presence (depicted as filled bars in FIG. 15) of herbimycin A (1 μM). […] Cell-free supernatant was collected, dialized to remove herbimycin A and serial dilutions were analyzed for IL-2 content by bioassay as described in June, J. Immunol., supra (1989).

CD28^+ T cells [4] = test: Cell cycle analysis (S+G2+M), propidium iodide flow cytometry; type: cell-based, human; settings: 48 h after stimulation
Protocol: In separate experiments, the relative levels of IL-2 for each of the culture conditions above were independently confirmed using a commercially available ELISA assay (Genzyme Corp., Boston, Mass.). TNF-α/LT levels were measured using a semi-automated L929 fibroblast lytic assay as previously described by Kunkel et al., J. Biol. Chem., 263:5380-5384 (1988). Units of TNF-α/LT were defined using an internal standard for TNF-α (Genzyme Corp., Boston Mass.). […] IFN-γ was measured by radioimmunoassay using a commercially available kit (Centocor, Malvern, Pa.). Units for IFN-γ were determined from a standard curve using ^125I-labeled human IFN-γ provided in the test kit. GM-CSF was detected by stimulation of proliferation of the human GM-CSF-dependent cell line AML-193, as described by Lange et al., Blood, 70:192-199 (1987), in the presence of neutralizing monoclonal antibodies to TNF-α and LT. The ^3H-thymidine uptake induced by 10 ng/ml of purified GM-CSF (Genetics Institute, Cambridge, Mass.) was defined as 100 U. Separate aliquots of cells were recovered 48 h after stimulation and assayed for the percentage of cells in late stages of the cell cycle (S+G2+M) by staining of cells with propidium iodide and analysis by flow cytometry as previously described by Thompson et al., Nature, 314:363-366 (1985). […]

CD28^+ T cells [5] = test: IL-4, IL-5, IFN and IL-2 in supernatants by ELISA, initial stimulation and restimulation
Protocol: Supernatants from the cell culture were analyzed for lymphokine concentration using commercially available ELISA kits and the values expressed as pg/ml for IL-4, IL-5 and γ-IFN, or as units per ml, for IL-2. Supernatants were analyzed after 24 h of culture (Initial) or alternatively, the cells were cultured for 8 days in the above forms of stimulation, the cells were recovered, washed, and then restimulated with their original treatment, and the supernatants analyzed after a further 24 h of stimulation (Restimulation). The values represent means of duplicate cultures.
Supernatants from the cell culture were analyzed for lymphokine concentration using commercially available ELISA kits and the values expressed as pg/ml for IL-4, IL-5 and γ-IFN. Supernatants were analyzed after 24 h of culture (Initial) or, alternatively, the cells were cultured for 8 days in the above forms of stimulation, and then restimulated, and the supernatants analyzed after a further 24 h period of stimulation (Restimulation). The values represent means of duplicate cultures.

Daudi = test: Cytotoxicity of activated cells against Daudi; type: cell-based, human
Protocol: (§1) One lytic unit is equivalent to 20% lysis of 5×10^3 target cells per 1×10^6 effector cells as discussed in Press, H. F. et al., J. Clin. Immunol. 1:51-83 (1981). Various targets, including Daudi and K562, were tested.
In 5 different subjects, PBL were compared with T cells (E^+) in their ability to kill Daudi, K562, and BSB cells 8 days after being activated with OKT3. These experiments were performed in X-Vivo 10 supplemented with 5% human serum (HS). […]
Cytotoxicity induced by soluble or immobilized OKT3. In 7 experiments, cytotoxicity mediated by T cells after activation was compared with soluble or immobilized OKT3. […] These experiments were performed with E^+ cells in RPMI 1640 supplemented with 10% fetal bovine serum (FBS). Cytotoxicity was assessed 7 to 8 days after triggering with soluble (10 ng/ml) or immobilized (2 μg/ml) OKT3.
Either soluble OKT3 10 ng/ml(s) or immobilized OKT3 (coated with 2 μg/ml)(I) were added as indicated. […]

K562 = test: Cytotoxicity of activated cells against K562; type: cell-based, human
Protocol: as §1
In 5 different subjects, PBL were compared with T cells (E^+) in their ability to kill Daudi, K562, and BSB cells 8 days after being activated with OKT3. These experiments were performed in X-Vivo 10 supplemented with 5% human serum (HS). The mean cytotoxicity in 5 normal subjects using PBL directed at Daudi, K562, and BSB were 15.0, 7.4, and 9.2 LU, respectively. In T cells from the same 5 subjects, the mean cytotoxicity directed at Daudi, K562, and BSB were 14.3, 7.7, and 9.3 LU, respectively.
(§2) Cytotoxicity as a function of in vitro time in cell culture. […] Cytotoxicity was a strong function of culture duration however, with <0.1, 24, 3.5, 0.5, 1.0 LU at 0, 8, 15, 22, and 29 days of culture. Similar results were found when Daudi was the target, with <0.01, 23, 5, 2, and 5 LU at 0, 8, 15, 22, and 29 days of culture.
Cytotoxicity induced by soluble or immobilized OKT3. In 7 experiments, cytotoxicity mediated by T cells after activation was compared with soluble or immobilized OKT3. Both methods induced cytotoxicity directed at Daudi and K562. Soluble OKT3 activated T cells mediated a mean cytotoxicity of 27 LU (SD-18) directed at Daudi and a mean cytotoxicity of 21 LU (SD-16) directed at K562. Immobilized OKT3 activated T cells mediated a mean cytotoxicity of 22 LU (SD-16) directed at Daudi and a mean cytotoxicity of 12 LU (SD-8) directed at K562. These experiments were performed with E^+ cells in RPMI 1640 supplemented with 10% fetal bovine serum (FBS). Cytotoxicity was assessed 7 to 8 days after triggering with soluble (10 ng/ml) or immobilized (2 μg/ml) OKT3.
(§3) Although the BMMNC population initially contained only 25% CD3^+ cells, proliferative and cytotoxic responses were excellent after 2 weeks of culture. […] In 4 experiments using normal bone marrow or autologous bone marrow, there was a median of 89-fold expansion of cells (range 18- to 173-fold) after 9 to 19 days of culture. Mean cytotoxicity directed at Daudi and K562 mediated by BMMNC stimulated with OKT3 was 5.5 LU (range 2-11) and 4.3 LU (range 2-8), respectively. […] Either soluble OKT3 10 ng/ml(s) or immobilized OKT3 (coated with 2 μg/ml)(I) were added as indicated.
(§4) Proliferative and cytotoxic responses from 3 patients were tested. […] Proliferation was assessed on day 3 of culture and cytotoxicity on day 7.

PBL, T cells or BMMNC = test: Proliferation and expansion of PBL, T cells or BMMNC after OKT3 activation; type: cell-based, human; settings: for Proliferation ^3H incorp.: day 3
Description: as §2, §3, §4

Jurkat line JHMI-2.2 = test: Cell death of Jurkat cells, visual grading and trypan blue; type: cell-based, human; settings: scored after 1 to 3 days; 9.3 mAb 10 μg/ml, carbacol 30 μM
Protocol: A series of experiments were done to test whether anti-CD28 mAb might prevent cell death in mature T cells. Jurkat leukemia cells are commonly used as an example of mature T cells that mimic physiologic effects found in peripheral blood T cells. […] The Jurkat line JHMI-2.2 was obtained from A. Weiss (UCSF); the muscarinic M1 receptor subtype has been transfected and is stably expressed in these cells. JHMI-2.2 cells, 0.3×10^6/well, were added to culture wells in complete medium, or to wells that contained plastic-adsorbed anti-CD3 mAb G19-4, in the presence or absence of 9.3 mAb 10 μg/ml, or 9.3 mAb alone. Cell death was scored after 1 to 3 days of culture and graded as 0 (none), 1+(20 to 70% of cells dead), and 2+(70 to 100% of cells dead), and was determined by visual inspection of the wells, and confirmed by trypan blue permeability.

[6] = system: CD28-induced tyrosine phosphorylation; test: Anti-phosphotyrosine immunoblot of PMA-treated T cells; type: cell-based, human; settings: T cells treated overnight with PMA 5 ng/ml and herbimycin A
Protocol: Immunoblot analysis of protein tyrosine phosphorylation. Details of the immunoblot assay with anti-phosphotyrosine antibodies has been described in Hsi, E. D. et al., J. Biol. Chem., 264:10836 (1989) and June, C. H. et al., J. Immunol., 144:1591 (1990). Cells were suspended at 5−10×10^7 cells/ml in reaction media, i.e., HBSS containing 0.8% FCS and 20 Mm Hepes at 37° C. at time—3 m and stimulated at time 0 m. mAbs were used at 10 μg/ml final concentration. For crosslinking, biotinylated mAbs were incubated with cells for 5-8 m at room temperature, the cells prewarmed at time 3 min and stimulated with avidin (Sigma Chemical Co.) at a final concentration of 40 μg/ml at time 0. Stimulation was terminated by the addition of ice-cold 10× lysis buffer, yielding a final concentration of 0.5% Triton X-100. See June, J. Immunol., supra (1990).
CD28-induced tyrosine phosphorylation prevented by CD45 and by herbimycin. […] T cells were treated overnight with PMA (5 ng/ml) in the presence of the indicated concentration of herbimycin A or in control medium. […] Detergent-soluble proteins were processed as previously described.
To address the effects of phosphatases on CD28-mediated signal transduction, T cells were cultured overnight with PMA (5 ng/ml). […] Monoclonal antibodies were crosslinked with avidin at time 0. The reaction was terminated after 2 m. […]

[7] = RESTIMULATION after 8 days, further 24 h
[8] = BMMNC, 14 days after activation, 50 IU/ml IL-2
[9] = E+ cells, 7 to 8 days after triggering, 7 experiments, listed as Immobilized OKT3
[10] = E+ cells, 7 to 8 days after triggering, 7 experiments, listed as Soluble OKT3
[11] = PBL, 5 normal subjects, 8 days after activation

CCCCCCCCCCCCCC(=O)O[C@@H]1[C@@H](C)[C@@]2(O)[C@@H](C=C(CO)C[C@]3(O)C(=O)C(C)=C[C@@H]23)[C@@H]2C(C)(C)[C@]12OC(C)=O [PMA, phorbol myristate acetate]
^3HTdR (CD28^+ T cells [1]; Dexamethasone 0 Nm): 5,000
^3HTdR (CD28^+ T cells [1]; Dexamethasone 25 Nm): 1,400
^3H-thymidine incorporation (CD28^+ T cells [1]; cells cultured with the single agent only): less than 150 cpm
% INHIBIT (CD28^+ T cells [1]; inhibition of proliferation by dexamethasone): 72%
IFN-γ (CD28^+ T cells [2]): 0 U/ml
IL-2 (CD28^+ T cells [2]): <2 U/ml
TNF-α/LT (CD28^+ T cells [2]): 0 U/ml
IL-2 [3]: < 10 U/ml
S + G2 + M (CD28^+ T cells [4]): 5.5%
IFN (CD28^+ T cells [5]; INITIAL, 24 h of culture): 152 pg/mL
IL-2 (CD28^+ T cells [5]; INITIAL, 24 h of culture): .07 U/ml
IL-4 (CD28^+ T cells [5]; INITIAL, 24 h of culture): <1 pg/mL
IL-5 (CD28^+ T cells [5]; INITIAL, 24 h of culture): <1 pg/mL
IFN (CD28^+ T cells [5]; [7]): <1 pg/mL
IL-2 (CD28^+ T cells [5]; [7]): 0.6 U/ml
IL-4 (CD28^+ T cells [5]; [7]): <1 pg/mL
IL-5 (CD28^+ T cells [5]; [7]): <1 pg/mL

OKT3: anti-CD3 mAb OKT3 (IgG2a), soluble or immobilized
mean cytotoxicity directed at Daudi (Daudi; [8]): 5.5 LU
mean cytotoxicity directed at Daudi (Daudi; [9]): 22 LU
mean cytotoxicity directed at Daudi (Daudi; [10]): 27 LU
mean cytotoxicity directed at Daudi (Daudi; [11]): 15.0 LU
mean cytotoxicity directed at Daudi (Daudi; T cells (E+), same 5 subjects): 14.3 LU
mean cytotoxicity directed at K562 (K562; [8]): 4.3 LU
mean cytotoxicity directed at K562 (K562; [9]): 12 LU
mean cytotoxicity directed at K562 (K562; [10]): 21 LU
mean cytotoxicity directed at K562 (K562; [11]): 7.4 LU
mean cytotoxicity directed at K562 (K562; T cells (E+), same 5 subjects): 7.7 LU
Proliferation ^3H incorp. (PBL, T cells or BMMNC; Bone Marrow #171, AML, Relapsed): 23,479 cpm
Proliferation ^3H incorp. (PBL, T cells or BMMNC; PBL P#632, non-Hodgkins lymphoma, pre-transplant): 58,670 cpm
Proliferation ^3H incorp. (PBL, T cells or BMMNC; PBL P#635, Hodgkins lymphoma, pre-transplant): 27,758 cpm
median expansion of cells (PBL, T cells or BMMNC; normal or autologous bone marrow, 4 experiments, 9 to 19 days): 89 fold

C[C@H](CCC(=O)O)C[C@H](C)C[C@H](C)C(=O)/C=C(\O)[C@H](C)C[C@H](C)C/C=C/[C@@H](C)[C@@H](O)[C@@H](C)[C@@H](O)C[C@@H]1CC[C@@](C)([C@H]2CC[C@@](C)([C@@H](C)O)O2)O1 [Ionomycin, ionomycin]
IFN-γ (CD28^+ T cells [2]): 0 U/ml
IL-2 (CD28^+ T cells [2]): <2 U/ml
TNF-α/LT (CD28^+ T cells [2]): 0 U/ml
IL-2 [3]: < 10 U/ml
S + G2 + M (CD28^+ T cells [4]): 6.6%

C[N+](C)(C)CCOC(N)=O [Carbacol, carbacol]
CELL DEATH (GRADE 0-2) (Jurkat line JHMI-2.2): 1+ (1+(20 to 70% of cells dead))

CO[C@H]1[C@@H](OC)C[C@H](C)[C@@H](OC)C2=CC(=O)C=C(NC(=O)/C(C)=C/C=C\[C@H](OC)[C@@H](OC(N)=O)/C(C)=C/[C@@H]1C)C2=O [herbimycin A]
PMA plus ionomycin-stimulated IL-2 secretion ([3]; herbimycin A 1 μM): resistant
Tyrosine phosphorylation induced by anti-CD28 mAb [6]: nearly completely prevented
